Laboratory results: the supplement of paper PMC10307832

Legend:
Assay in all cases: relative viability (nuclei count vs DMSO), 5 days (fraction); higher = more cells survive
Carboplatin + Tozasertib = compound: C1CC(C1)(C(=O)O)C(=O)O.[NH2-].[NH2-].[Pt+2] [Carboplatin] + Cc1cc(Nc2cc(N3CCN(C)CC3)nc(Sc3ccc(NC(=O)C4CC4)cc3)n2)n[nH]1 [Tozasertib] (partner 0.1 µM)
Procedure, shortened: (§1)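 Relative viability is defined as nuclei in treated wells over nuclei in vehicle wells. Duplicate plates were run and medians reported. Lung cancer cell lines in 1536-well plates were dosed by pin tool one day after seeding, with one drug or with a fixed anchor-drug dose plus five library-drug doses (not always all listed) in √10 steps, and nuclei were counted after 5 days.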

GSK126 + Luminespib = compound: CC[C@H](C)N1C=C(C2=C(C=C(C=C21)C3=CN=C(C=C3)N4CCNCC4)C(=O)NCC5=C(C=C(NC5=O)C)C)C [GSK126] + CCNC(=O)c1noc(-c2cc(C(C)C)c(O)cc2O)c1-c1ccc(CN2CCOCC2)cc1 [Luminespib] (partner 0.01 µM)
Procedure, shortened: as §1

GSK126 + Tozasertib = compound: CC[C@H](C)N1C=C(C2=C(C=C(C=C21)C3=CN=C(C=C3)N4CCNCC4)C(=O)NCC5=C(C=C(NC5=O)C)C)C [GSK126] + Cc1cc(Nc2cc(N3CCN(C)CC3)nc(Sc3ccc(NC(=O)C4CC4)cc3)n2)n[nH]1 [Tozasertib] (partner 0.1 µM)
Procedure, shortened: as §1

MLN4924 + AZD7762 = compound: NS(=O)(=O)OC[C@@H]1C[C@@H](n2ccc3c(N[C@H]4CCc5ccccc54)ncnc32)C[C@@H]1O [MLN4924] + NC(=O)Nc1cc(-c2cccc(F)c2)sc1C(=O)N[C@H]1CCCNC1 [AZD7762] (partner 0.2 µM)
Procedure, shortened: as §1

| Cell Line | relative viability (Carboplatin + Tozasertib; first compound 0.08 µM) | relative viability (Carboplatin + Tozasertib; first compound 0.253 µM) | relative viability (Carboplatin + Tozasertib; first compound 0.8 µM) | relative viability (Carboplatin + Tozasertib; first compound 2.53 µM) | relative viability (Carboplatin + Tozasertib; first compound 8 µM) | relative viability (GSK126 + Luminespib; first compound 0.08 µM) | relative viability (GSK126 + Luminespib; first compound 0.253 µM) | relative viability (GSK126 + Luminespib; first compound 0.8 µM) | relative viability (GSK126 + Luminespib; first compound 2.53 µM) | relative viability (GSK126 + Luminespib; first compound 8 µM) | relative viability (GSK126 + Tozasertib; first compound 0.08 µM) | relative viability (GSK126 + Tozasertib; first compound 0.253 µM) | relative viability (GSK126 + Tozasertib; first compound 0.8 µM) | relative viability (GSK126 + Tozasertib; first compound 2.53 µM) | relative viability (GSK126 + Tozasertib; first compound 8 µM) | relative viability (MLN4924 + AZD7762; first compound 0.04 µM) | relative viability (MLN4924 + AZD7762; first compound 0.1265 µM) | relative viability (MLN4924 + AZD7762; first compound 0.4 µM) | relative viability (MLN4924 + AZD7762; first compound 1.265 µM) | relative viability (MLN4924 + AZD7762; first compound 4 µM) |
| --- | --- | --- | --- | --- | --- | --- | --- | --- | --- | --- | --- | --- | --- | --- | --- | --- | --- | --- | --- | --- |
| NCI-H322M | 0.534 | 0.532 | 0.56 | 0.481 | 0.479 | 0.822 | 0.845 | 0.85 | 0.978 | 0.834 | 0.501 | 0.51 | 0.49 | 0.472 | 0.499 | 0.688 | 0.643 | 0.64 | 0.317 | 0.39 |
| LCLC-97TM1 | 0.235 | 0.292 | 0.249 | 0.192 | 0.212 | 0.758 | 0.796 | 0.867 | 0.82 | 0.81 | 0.244 | 0.223 | 0.188 | 0.225 | 0.176 | 0.338 | 0.22 | 0.0891 | 0.0605 | 0.0696 |
| NCI-H596 | 0.985 | 0.98 | 0.907 | 0.77 | 0.491 | 1.11 | 0.319 | 0.277 | 0.263 | 0.219 | 0.933 | 1.03 | 0.894 | 0.89 | 0.933 | 1.04 | 1.22 | 1.06 | 1.15 | 1.19 |
| NCI-H1944 | 0.245 | 0.247 | 0.263 | 0.24 | 0.237 | 0.873 | 0.72 | 0.621 | 0.678 | 0.923 | 0.261 | 0.24 | 0.247 | 0.23 | 0.28 | 0.766 | 0.627 | 0.39 | 0.186 | 0.123 |
| NCI-H1755 | 0.57 | 0.587 | 0.543 | 0.535 | 0.484 | 0.435 | 0.519 | 0.58 | 0.381 | 0.501 | 0.577 | 0.64 | 0.53 | 0.552 | 0.508 | 0.604 | 0.682 | 0.666 | 0.411 | 0.255 |
| H3255 | 0.829 | 0.603 | 0.577 | 0.52 | 0.525 | 0.988 | 0.968 | 0.898 | 0.95 | 1.01 | 0.704 | 0.65 | 0.74 | 0.614 | 0.466 | 0.784 | 0.797 | 0.457 | 0.267 | 0.33 |
| NCI-H23 | 0.4 | 0.315 | 0.385 | 0.356 | 0.317 | 0.224 | 0.17 | 0.257 | 0.226 | 0.208 | 0.374 | 0.374 | 0.354 | 0.624 | 0.266 | 0.304 | 0.263 | 0.282 | 0.213 | 0.28 |
